The record followed here is PMC7157554, “Anti-Trypanosomal Proteasome Inhibitors Cure Hemolymphatic and Meningoencephalic Murine Infection Models of African Trypanosomiasis” (Tropical Medicine and Infectious Disease, 2020).

As usually defined, the EC50 is the concentration that produces a half-maximal response. By CC50 is commonly meant the concentration that lowers cell viability or growth by half. High values mean better tolerance by the cells, low ones harm at low concentration. As a reminder, the solubility is how much of the substance goes into solution per volume. Low values mean a poorly soluble substance, high ones a readily soluble substance. As usually defined, the fraction unbound is free concentration divided by total concentration. For orientation: AUC means the area under the concentration-time curve, a measure of exposure. The bioavailability is dose-corrected exposure relative to a reference, in per cent. By Cmax is commonly meant the peak of the concentration-time curve.

Structures are written as SMILES. Converted amounts (≈) assume the structure as drawn. Read-outs that look alike come from different tables or passages of the source.

Data set [1] deals with T. b. gambiense. The experiment in a line: Growth inhibition of T. b. gambiense strains. Type of data set: cell-based. The settings on record: Trypanosoma brucei, mean ± SD, read-out: T. b. gambiense EC50.
The test system of data set [2] is T. b. rhodesiense. Kind of data set: Growth inhibition of T. b. rhodesiense strains. The settings on record: Trypanosoma brucei, mean ± SD, read-out: T. b. rhodesiense EC50. Type of data set: cell-based.
The subject of data set [3] is T. b. brucei. Kind of data set: Growth inhibition of T. b. brucei strains BS221, BS221 (P2 KO), STIB950. Type of data set: cell-based. The settings on record: Trypanosoma brucei, mean ± SD, read-out: T. b. brucei EC50. Here is the method: The T. b. brucei strain Lister 427 (bloodstream form) parasites were continuously grown in complete HMI-9 medium supplemented with 10% Serum Plus and 10% heat-inactivated fetal bovine serum (FBS). All other parasite strains were cultured as described elsewhere.
For determination of 50% growth inhibition, all compounds were dissolved in DMSO, and 200 nL of threefold serially diluted compounds were added into solid-bottom 384-well white plates (Greiner Bio-One, Kremsmunster, Austria) by an Echo 555 acoustic liquid-handling system. Forty microliters of 10^4 cells/mL of T. b. brucei parasites was added into each well, and the plates were incubated in a 5% CO2 incubator at 37 °C for 48 h. Viability of parasites were determined by measuring intracellular ATP levels, using CellTiter-Glo (CTG) luminescent cell viability reagent (Promega, Madison, Wisconsin WI, USA). The EC50 values were determined by using GraphPad Prism software. Growth inhibition assays for all clinical isolates were carried out as described earlier. All experiments had two technical replicates and three biological replicates. […]

Data set [4] is described as follows: HepG2 cytotoxicity assay (CCK-8, 96 h). It is filed as cell-based, human. The settings on record: human, HepG2 cells, mean ± SEM. Here is the method:
The HepG2 (human hepatocellular carcinoma) cells were obtained from ATCC (American Type Culture Collection) and grown in RPMI media. Cytotoxicity assay was performed in 384-well format, and 25 µL, approximately 1.6 × 10^4 cells/mL, suspension was added to clear-bottom 384-well Griener plates and incubated in 5% CO2 incubator, at 37 °C for 24 h. Once the cells adhered, 125 nL of threefold serially diluted compounds in DMSO was added. Plates were incubated for 96 h, at 37 °C, in a 5% CO2 incubator. Plates were read for viability by adding 10 µL of CCK-8 reagent (APExBIO) into each well, followed by 3 h incubation and absorbance reading at […], using an Envision plate reader. […] Puromycin was used as a positive control. All experiments had two technical replicates and three biological replicates. Appropriate statistical tests were used for evaluating significance, and mean ± SEM is represented in the tables.

A short description of data set [5]: High-throughput thermodynamic solubility assay. Type of data set: physicochemical. The settings on record: for solubility: pH 6.8, thermodynamic from solid. Here is the method:
(§1) Test compounds’ solubility was determined in a high-throughput thermodynamic solubility assay, as described previously. The PAMPA (parallel artificial membrane) assays were carried out, using a standard protocol. Plasma protein binding was determined by using mouse blood, whilst brain tissue binding was determined by using rat brain tissue homogenate. Intrinsic metabolic clearances were determined in mouse liver microsomes, using the compound depletion approach and LC–MS/MS quantification.

Data set [6] in a line: Mouse plasma protein binding. It is filed as in vitro ADME. The note with it: for fraction unbound: mouse plasma. Here is the method: as §1
Data set [7] concerns T. brucei PSMB4^WT. The experiment in a line: Growth inhibition of T. brucei expressing wild-type 20S proteasome β4 subunit. It is filed as cell-based. The note with it: Trypanosoma brucei, read-out: T. brucei PSMB4^WT EC50. Here is the method:
(§2) For determination of 50% growth inhibition, all compounds were dissolved in DMSO, and 200 nL of threefold serially diluted compounds were added into solid-bottom 384-well white plates (Greiner Bio-One, Kremsmunster, Austria) by an Echo 555 acoustic liquid-handling system. Forty microliters of 10^4 cells/mL of T. b. brucei parasites was added into each well, and the plates were incubated in a 5% CO2 incubator at 37 °C for 48 h. Viability of parasites were determined by measuring intracellular ATP levels, using CellTiter-Glo (CTG) luminescent cell viability reagent (Promega, Madison, Wisconsin WI, USA). The EC50 values were determined by using GraphPad Prism software. Growth inhibition assays for all clinical isolates were carried out as described earlier. All experiments had two technical replicates and three biological replicates. Appropriate statistical tests were used for evaluating significance, and mean ± SEM is represented in the tables.

In data set [8] the test system is T. brucei PSMB4^F24L. Kind of data set: Growth inhibition of T. brucei expressing F24L mutant 20S proteasome β4 subunit. The settings on record: Trypanosoma brucei, read-out: T. brucei PSMB4^F24L EC50. Type of data set: cell-based, Trypanosoma brucei. Here is the method: as §2
The nature of data set [9]: Per oral pharmacokinetics in mouse. The note with it: for AUC / Cmax: total. It is filed as in vivo. On the procedure: Determination of intravenous (i.v.) and per oral (p.o.) pharmacokinetics (PK) were carried out by using male BALB/c mice. For i.v. PK studies, compounds were formulated at a concentration of 2.5 mg/mL in 75% PEG300 and 25% D5W (5% dextrose in distilled water). To avoid any granular material, the solution was filtered, using a 0.45 μm syringe filter. The filtered solutions were dosed intravenously to mice via the lateral tail vein, at 5 mg/kg, with a dosing volume of 2 mL/kg. For all the p.o. PK studies, compounds were resuspended in 0.5% v/v methyl cellulose in 0.5 % v/v tween 80 solution. For 20 mg/kg dosing, 200 µL of compounds was administered orally to mice. Six blood samples of 50 μL each were collected serially from each animal, up to 24 h after dosing. Blood samples were collected into heparin microtainers and centrifuged, and then plasma was separated and frozen until analysis. Plasma samples (20 μL) were extracted with acetonitrile:methanol (3:1) containing internal standard. The samples were vortexed and then centrifuged in an Eppendorf centrifuge 5810R, at a setting of 4000 rpm, for 5 min, at 4 °C. The supernatant was transferred to a 96-well analysis plate and analyzed, using optimized LC/MS/MS conditions. For every experiment, 3 mice were used per compound, per dose. The plasma concentration-time profile was obtained by plotting the mean value from the three animals at each time point. Various PK parameters, such as Cmax (maximum concentration), area under curve (AUC) and oral bioavailability (F) for compounds, were calculated by non-compartmental regression analysis, using an in-house fitting program developed at GNF [8]. All the in-life studies were carried out under protocols approved by the Animal Care and Use Committee (IACUC), following animal ethics guidelines of GNF.

The nature of data set [10]: Rat brain tissue binding. Type of data set: in vitro ADME. The settings on record: rat brain tissue homogenate. Here is the method:
as §1

The mark [11] stands for this setting: GAMBIENSE / STIB930, strain STIB930.
[12] abbreviates: RHODESIENSE / STIB900, strain STIB900.
Setting [13] is: RHODESIENSE / STIB900, strain STIB900 Mel^R (melarsoprol-resistant).
[14] abbreviates: RHODESIENSE / STIB900, strain STIB900 Pent^R (pentamidine-resistant).
Where [15] appears, read: male, BALB/c, plasma, po, p.o. 20 mg/kg, 0 to infinity.
[16] abbreviates: male, BALB/c, plasma, po, p.o. 20 mg/kg.

`Cc1nc(C)c(C(=O)Nc2ccc(F)c(-c3nc4ncc(-c5ccccn5)cn4n3)c2)o1` [GNF6702]: the half-maximal effective concentration (EC50) in data set [1] (setting [11]) is 3.7 ± 2 nM; in data set [1] (GAMBIENSE, strain K048), 3.5 ± 1.4 nM; in data set [1] (GAMBIENSE, strain R130), 2.3 ± 1.1 nM; in data set [2] (setting [12]), 1.6 ± 0.9 nM; in [2] (setting [13]), 0.7 ± 0.2 nM; in data set [2] (setting [14]), 1.2 ± 0.3 nM. For the same compound, the concentration giving a half-maximal response (EC50) in data set [3] (STIB950, strain STIB950) came to 1.2 ± 0.5 nM; in [3] (strain BS221 (P2 KO)), 3.5 ± 1.2 nM; in data set [3] (strain BS221), 0.9 ± 0.3 nM.

Turning to `Cc1nc(C)c(C(=O)Nc2ccc(F)c(-c3nc4ncc(C(C)(C)C)cn4n3)c2)o1` [NITD689], the 50% cytotoxic concentration (CC50) at 96 h in data set [4] was > 20000 nM. This compound also gave a solubility in [5] of 71 µg/mL (≈ 174 µM). The fraction unbound in [6] is 0.095. The EC50 in [7] is 20 ± 4 nM; in data set [8], 1900 ± 20 nM. This compound came in with an AUC in [9] (setting [15]) of 89.7 µM·h. Further, the bioavailability in data set [9] (male, BALB/c, plasma, po, p.o. 20 mg/kg, read-out: F (oral bioavailability)) stood at 100%. Besides, the concentration in data set [9] (setting [16]) peaked (Cmax) at 12.2 µM. The Tmax in data set [9] (p.o. 20 mg/kg) was 0.5 H. The “Cmax, free fraction (value in parenthesis)” value in data set [9] (p.o. 20 mg/kg, free) was 1.1562 µM. The “BTB (rat brain tissue binding)” value in data set [10] amounted to 96.5%.

`Cc1nc(C)c(C(=O)Nc2ccc(F)c(-c3nc4ncc(-c5ccccc5)cn4n3)c2)o1` [GNF3849] returned a 50% cytotoxic concentration (CC50) at 96 h in data set [4] of 1100 ± 200 nM. Besides, the “Solubility pH 6.8” value in data set [5] (pH 6.8) is “poor”. Further, the solubility in data set [5] was < 2 µg/mL. Also, the “Mouse plasma protein binding” value in [6] is listed as “high”. Further, the fraction unbound in data set [6] was < 0.01. Besides, the EC50 in data set [1] (setting [11]) came to 4.5 ± 1 nM; in data set [1] (GAMBIENSE, strain K048), 4.8 ± 1.1 nM; in data set [1] (GAMBIENSE, strain R130), 1.9 ± 1 nM; in data set [2] (setting [12]), 1.4 ± 1 nM; in [2] (setting [13]) it was 0.6 nM; in [2] (setting [14]), 1.7 ± 1 nM. The EC50 turned out to be 0.9 ± 0.2 nM in data set [3] (STIB950, strain STIB950); 4 ± 2.5 nM in data set [3] (strain BS221 (P2 KO)); 1.9 ± 0.8 nM in data set [3] (strain BS221); 10 ± 3 nM in [7]; 2200 ± 20 nM in data set [8]. Further, in [9] (setting [15]), the area under the curve (AUC) came to 108 µM·h. This compound gave a Cmax in data set [9] (setting [16]) of 7.16 µM. In data set [9] (oral), the “Exposure, fold less than GNF6702” value was ~ 2.5 fold. For the same compound, the Tmax in data set [9] (p.o. 20 mg/kg) is given as 3 H. The “AUC, free fraction (value in parenthesis)” value in data set [9] (p.o. 20 mg/kg, 0 to infinity, free) is < 1.0751 µM·h. For the same compound, in data set [9] (p.o. 20 mg/kg, free), the “Cmax, free fraction (value in parenthesis)” value is < 0.0716 µM. Also, the “BTB (rat brain tissue binding)” value in data set [10] is listed as >99%.
